Results reported in patent publication US9504669B2, “Spliceostatin analogs and methods for their preparation” (PFIZER INC., priority 2012, dated 2016).

Tests used:
[1] = test system: MDA-MB-361-DYT2 (breast cancer) cells; assay: In vitro cell assay (MTS cell viability), MDA-MB-361-DYT2; assay type: cell-based; details: 96 h, free compounds (natural products and synthetic analogs); cell viability 96 hours after treatment
Protocol: (§1) Target expressing (BT474 (breast cancer), N87 (gastric cancer), HCC1954 (breast cancer), MDA-MB-361-DYT2 (breast cancer)) or non-expressing (MDA-MB-468) cells were seeded in 96-well cell culture plates for 24 hours before treatment. Cells were treated with 3-fold serially diluted antibody-drug conjugates or free compounds (i.e., no antibody conjugated to the drug) in duplicate at 10 concentrations. Cell viability was determined by CellTiter 96® AQueous One Solution Cell Proliferation MTS Assay (Promega, Madison Wis.) 96 hours after treatment. Relative cell viability was determined as percentage of untreated control. IC50 values were calculated using a four parameter logistic model #203 with XLfit v4.2 (IDBS, Guildford, Surry, UK). The potency ranged upward from 0.0002 nm. Similar procedures and techniques were employed.

[2] = test system: N87 (gastric cancer) cells; assay: In vitro cell assay (MTS cell viability), N87; assay type: cell-based; details: 96 h, free compounds (natural products and synthetic analogs); cell viability 96 hours after treatment
Protocol: as §1

Structure (SMILES)	IC50 [1] [nM]	IC50 [2] [nM]
CC(=O)O[C@@H](C)/C=C\C(=O)N[C@@H]1C[C@H](C)[C@H](C/C=C(C)/C=C/[C@H]2O[C@H](CC(=O)N[C@H]3C[C@@H](O)C3)C[C@@]3(CO3)[C@@H]2O)O[C@@H]1C [#B142, (2S,3Z)-5-{[(2R,3R,5S,6S)-6-{(2E,4E)-5-[(3R,4R,5R,7S)-4-hydroxy-7-{2-[(cis-3-hydroxycyclobutyl)amino]-2-oxoethyl}-1,6-dioxaspiro[2.5]oct-5-yl]-3-methylpenta-2,4-dien-1-yl}-2,5-dimethyltetrahydro-2H-pyran-3-yl]amino}-5-oxopent-3-en-2-yl acetate]	55.5	11.2
CNNC(=O)C[C@@H]1C[C@@]2(CO2)[C@H](O)[C@@H](/C=C/C(C)=C/C[C@@H]2O[C@H](C)[C@H](NC(=O)/C=C\[C@H](C)OC(C)=O)C[C@@H]2C)O1 [#B143, (2S,3Z)-5-({(2R,3R,5S,6S)-6-[(2E,4E)-5-{(3R,4R,5R,7S)-4-hydroxy-7-[2-(2-methylhydrazinyl)-2-oxoethyl]-1,6-dioxaspiro[2.5]oct-5-yl}-3-methylpenta-2,4-dien-1-yl]-2,5-dimethyltetrahydro-2H-pyran-3-yl}amino)-5-oxopent-3-en-2-yl acetate]	9.51	2.43
CC(=O)O[C@@H](C)/C=C\C(=O)N[C@@H]1C[C@H](C)[C@H](C/C=C(C)/C=C/[C@H]2O[C@H](CC(=O)N(C)N)C[C@@]3(CO3)[C@@H]2O)O[C@@H]1C [#B144, (2S,3Z)-5-({(2R,3R,5S,6S)-6-[(2E,4E)-5-{(3R,4R,5R,7S)-4-hydroxy-7-[2-(1-methylhydrazinyl)-2-oxoethyl]-1,6-dioxaspiro[2.5]oct-5-yl}-3-methylpenta-2,4-dien-1-yl]-2,5-dimethyltetrahydro-2H-pyran-3-yl}amino)-5-oxopent-3-en-2-yl acetate]	6.1	0.982
CNN(C)C(=O)C[C@@H]1C[C@@]2(CO2)[C@H](O)[C@@H](/C=C/C(C)=C/C[C@@H]2O[C@H](C)[C@H](NC(=O)/C=C\[C@H](C)OC(C)=O)C[C@@H]2C)O1 [#B145, (2S,3Z)-5-({(2R,3R,5S,6S)-6-[(2E,4E)-5-{(3R,4R,5R,7S)-7-[2-(1,2-dimethylhydrazinyl)-2-oxoethyl]-4-hydroxy-1,6-dioxaspiro[2.5]oct-5-yl}-3-methylpenta-2,4-dien-1-yl]-2,5-dimethyltetrahydro-2H-pyran-3-yl}amino)-5-oxopent-3-en-2-yl acetate]	2.03	0.408
COC(=O)C[C@@H]1C[C@@]2(CO2)C[C@@H](/C=C/C(C)=C/C[C@@H]2O[C@H](C)[C@H](NC(=O)/C=C\[C@H](C)OC(=O)CCCSC)C[C@@H]2C)O1 [#B149, (2S,3Z)-5-{[(2R,3R,5S,6S)-6-{(2E,4E)-5-[(3S,5S,7S)-7-(2-methoxy-2-oxoethyl)-1,6-dioxaspiro[2.5]oct-5-yl]-3-methylpenta-2,4-dien-1-yl}-2,5-dimethyltetrahydro-2H-pyran-3-yl]amino}-5-oxopent-3-en-2-yl 4-(methylsulfanyl)butanoate]	> 100	> 100
CC(=O)O[C@@H](C)/C=C\C(=O)N[C@@H]1C[C@H](C)[C@H](C/C=C(C)/C=C/[C@H]2O[C@H](CC(=O)NN(C)C)C[C@@]3(CO3)[C@@H]2O)O[C@@H]1C [#B177, (2S,3Z)-5-({(2R,3R,5S,6S)-6-[(2E,4E)-5-{(3R,4R,5R,7S)-7-[2-(2,2-dimethylhydrazinyl)-2-oxoethyl]-4-hydroxy-1,6-dioxaspiro[2.5]oct-5-yl}-3-methylpenta-2,4-dien-1-yl]-2,5-dimethyltetrahydro-2H-pyran-3-yl}amino)-5-oxopent-3-en-2-yl acetate]	5.65	1.61
CC(=O)O[C@@H](C)/C=C\C(=O)N[C@@H]1C[C@H](C)[C@H](C/C=C(C)/C=C/[C@H]2O[C@H](CC(=O)N3CCCCN3)C[C@@]3(CO3)[C@@H]2O)O[C@@H]1C [#B179, (2S,3Z)-5-({(2R,3R,5S,6S)-6-[(2E,4E)-5-{(3R,4R,5R,7S)-4-hydroxy-7-[2-oxo-2-(tetrahydropyridazin-1(2H)-yl)ethyl]-1,6-dioxaspiro[2.5]oct-5-yl}-3-methylpenta-2,4-dien-1-yl]-2,5-dimethyltetrahydro-2H-pyran-3-yl}amino)-5-oxopent-3-en-2-yl acetate]	1.29	0.299
CC(/C=C/[C@H]1O[C@H](CC(=O)NN)C[C@@]2(CO2)[C@@H]1O)=C\C[C@@H]1O[C@H](C)[C@H](NC(=O)/C=C\[C@H](C)O)C[C@@H]1C [#B209, (2Z,4S)—N-[(2R,3R,5S,6S)-6-{(2E,4E)-5-[(3R,4R,5R,7S)-7-(2-hydrazinyl-2-oxoethyl)-4-hydroxy-1,6-dioxaspiro[2.5]oct-5-yl]-3-methylpenta-2,4-dien-1-yl}-2,5-dimethyltetrahydro-2H-pyran-3-yl]-4-hydroxypent-2-enamide]	> 100	60.6
COC(=O)C[C@@H]1C[C@@]2(CO2)[C@H](O)[C@@H](/C=C/C(C)=C/C[C@@H]2O[C@H](C)[C@H](NC(=O)/C=C\[C@H](C)OC)C[C@@H]2C)O1 [#B229, methyl [(3R,5S,7R,8R)-8-hydroxy-7-{(1E,3E)-5-[(2S,3S,5R,6R)-5-{[(2Z,4S)-4-methoxypent-2-enoyl]amino}-3,6-dimethyltetrahydro-2H-pyran-2-yl]-3-methylpenta-1,3-dien-1-yl}-1,6-dioxaspiro[2.5]oct-5-yl]acetate]	9.14	3.6
COC(=O)C[C@@H]1C[C@@]2(CO2)[C@H](O)[C@@H](/C=C/C(C)=C/C[C@@H]2O[C@H](C)[C@H](NC(=O)/C=C\[C@H](C)O)C[C@@H]2C)O1 [#B235, methyl [(3R,5S,7R,8R)-8-hydroxy-7-{(1E,3E)-5-[(2S,3S,5R,6R)-5-{[(2Z,4S)-4-hydroxypent-2-enoyl]amino}-3,6-dimethyltetrahydro-2H-pyran-2-yl]-3-methylpenta-1,3-dien-1-yl}-1,6-dioxaspiro[2.5]oct-5-yl]acetate]	36.8	16.4
COC(=O)C[C@@H]1C[C@@]2(CO2)[C@H](OC)[C@@H](/C=C/C(C)=C/C[C@@H]2O[C@H](C)[C@H](NC(=O)/C=C\[C@H](C)OC)C[C@@H]2C)O1 [#B240, methyl [(3R,5S,7R,8R)-8-methoxy-7-{(1E,3E)-5-[(2S,3S,5R,6R)-5-{[(2Z,4S)-4-methoxypent-2-enoyl]amino}-3,6-dimethyltetrahydro-2H-pyran-2-yl]-3-methylpenta-1,3-dien-1-yl}-1,6-dioxaspiro[2.5]oct-5-yl]acetate]	5.05	9.79
CC(=O)O[C@@H](C)/C=C\C(=O)N[C@@H]1C[C@H](C)[C@H](C/C=C(C)/C=C/[C@H]2O[C@H](CNC(N)=O)C[C@@]3(CO3)[C@@H]2O)O[C@@H]1C [#B241, (2S,3Z)-5-({(2R,3R,5S,6S)-6-[(2E,4E)-5-{(3R,4R,5R,7S)-7-[(carbamoylamino)methyl]-4-hydroxy-1,6-dioxaspiro[2.5]oct-5-yl}-3-methylpenta-2,4-dien-1-yl]-2,5-dimethyltetrahydro-2H-pyran-3-yl}amino)-5-oxopent-3-en-2-yl acetate]	43.6	21.3
